The text below walks through data of BindingDB's records for patent US20250144094 (Erasca, 2025).

Structures are written as SMILES. pIC50: −log10 of the molar value.

One experiment deals with T1, Serine/threonine-protein kinase ULK1 [1-649] (UniProt O75385).
T1 construct: 1-649
T1 sequence (O75385 whole entry): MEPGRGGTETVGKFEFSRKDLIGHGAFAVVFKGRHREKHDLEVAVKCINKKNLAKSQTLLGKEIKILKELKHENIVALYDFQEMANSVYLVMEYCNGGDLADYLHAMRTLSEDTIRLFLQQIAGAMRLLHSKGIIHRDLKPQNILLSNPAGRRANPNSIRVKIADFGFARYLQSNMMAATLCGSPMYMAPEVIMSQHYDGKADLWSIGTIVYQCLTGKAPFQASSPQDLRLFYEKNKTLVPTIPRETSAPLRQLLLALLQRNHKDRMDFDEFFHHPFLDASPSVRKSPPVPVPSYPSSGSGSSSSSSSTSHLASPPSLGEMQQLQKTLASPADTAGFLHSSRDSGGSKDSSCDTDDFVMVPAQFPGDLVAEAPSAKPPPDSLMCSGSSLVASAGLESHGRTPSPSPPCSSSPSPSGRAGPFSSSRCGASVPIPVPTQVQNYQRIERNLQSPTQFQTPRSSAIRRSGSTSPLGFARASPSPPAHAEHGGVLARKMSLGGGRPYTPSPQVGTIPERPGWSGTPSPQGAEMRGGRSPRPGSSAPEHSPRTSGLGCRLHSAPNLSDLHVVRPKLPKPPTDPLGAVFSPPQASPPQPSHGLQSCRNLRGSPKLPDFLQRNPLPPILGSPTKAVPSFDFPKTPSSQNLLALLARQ
The experiment in a line: ADP Glo Kinase Activity Assay. Here is the method:
(§1) Table 4: ULK1 inhibitor potency was determined using the luminescent ADP Glo Kinase Assay (Promega), a universal ADP detection system that measures kinase activity by quantifying the amount of ADP produced during a kinase reaction. ULK1 kinase reactions are performed in a standard 96-well microplate (20 μL reaction volume) at 25° C. for 40 minutes in the presence or absence of the test compound (12-point dilution series starting at 10 μM). Addition of peptide substrate and ATP initiates the kinase reaction.The standard ADP Glo assay is performed in two steps. In step one, following the kinase reaction, an equal volume of ADP-Glo™ Reagent (20 μL) is added to terminate the kinase reaction and deplete the remaining ATP. In the second step, the Kinase Detection Reagent (10 μL) is added to simultaneously convert ADP to ATP and allow the newly synthesized ATP to be measured using a luciferase/luciferin reaction. Step two of the ADP Glo assay is performed in a white 384-well plate (20 μL final volume). Thirty minutes after the addition of the Detection reagent, light generated from the luciferase reaction is measured (1 second exposure) using a microplate compatible luminometer (CLARIOstar, BMG Labtech).Inhibition of ULK1 kinase activity is determined for each test compound by comparison to DMSO only control wells. Inhibitor IC50 was calculated by plotting the change in luminescence after 30 minutes (response) versus inhibitor concentration (in log molar) then applying the four-parameter variable slope curve fit (GraphPad Prism).
Background: ADP-Glo turns the ADP formed in a reaction into a luminescent signal.
As usually defined, the pIC50 is −log10 of the IC50, conventionally taken in molar units. Low values mean a high IC50, high ones a low IC50. On to `O=C1c2sc(-c3nc(Nc4cc5c(cc4Cl)CNCC5)ncc3C(F)(F)F)cc2S(=O)(=O)CCN1CC1CC1` [US20250144094, Example 153], for which the pIC50 is over 8.30. On the same count and under the same terms, then `CN1CCN(c2ccc(Nc3ncc(C(F)(F)F)c(-c4cc5c(s4)C(=O)N(C)CCS5(=O)=O)n3)c(Cl)c2)CC1` [US20250144094, Example 194], with over 8.30. On the same count and under the same terms, then `CCN1CCc2cc(Nc3ncc(C(F)(F)F)c(-c4cc5c(s4)C(=O)N(C4CCC4)CCS5(=O)=O)n3)c(C3CC3)cc2C1` [US20250144094, Example 226], with over 8.30; and `CCc1cc2c(cc1Nc1ncc(C(F)(F)F)c(-c3cc4c(s3)C(=O)N(C3COC3)CCS4(=O)=O)n1)CCNC2` [US20250144094, Example 229], with over 8.30.

On to `CCN1CCc2cc(Nc3ncc(C(F)(F)F)c(-c4cc5c(s4)C(=O)N(CC(F)(F)F)CCS5(=O)=O)n3)c(C3CC3)cc2C1` [US20250144094, Example 245], for which the pIC50 was over 8.30. The compound `O=C1c2sc(-c3nc(Nc4ccc(N5CCN(CC6CC6)CC5)cc4C4CC4)ncc3C(F)(F)F)cc2S(=O)(=O)CCN1C1CC1` [US20250144094, Example 251] gave a pIC50 of over 8.30. The compound `NC(=O)CN1CCc2cc(Nc3ncc(C(F)(F)F)c(-c4cc5c(s4)C(=O)N(C4CC4)CCS5(=O)=O)n3)c(C3CC3)cc2C1` [US20250144094, Example 278] gave a pIC50 of over 8.30. The same measure, in the same setting: then `CCc1cc(C2CCNCC2)ccc1Nc1ncc(C(F)(F)F)c(-c2cc3c(s2)C(=O)N(C2CC2)CCS3(=O)=O)n1` [US20250144094, Example 281], with 8.12; and `O=C1c2sc(-c3nc(Nc4cc5c(cc4C4CC4)CN(CCF)CC5)ncc3C(F)(F)F)cc2S(=O)(=O)CCN1C1COC1` [US20250144094, Example 290], with over 8.30. Still for that read-out and setting: then `C[C@@H]1CN(c2ccc(Nc3ncc(C(F)(F)F)c(-c4cc5c(s4)C(=O)N(C)CCS5(=O)=O)n3)c(C3CC3)c2)CCN1` [US20250144094, Example 365], with over 8.30; and `CN1CCS(=O)(=O)c2cc(-c3nc(Nc4ccc(N5CC6CC(C5)N6)cc4C4CC4)ncc3C(F)(F)F)sc2C1=O` [US20250144094, Example 381], with over 8.30.

Another experiment deals with T2, Serine/threonine-protein kinase ULK1 (Homo sapiens, UniProt O75385).
T2 sequence (O75385 whole entry): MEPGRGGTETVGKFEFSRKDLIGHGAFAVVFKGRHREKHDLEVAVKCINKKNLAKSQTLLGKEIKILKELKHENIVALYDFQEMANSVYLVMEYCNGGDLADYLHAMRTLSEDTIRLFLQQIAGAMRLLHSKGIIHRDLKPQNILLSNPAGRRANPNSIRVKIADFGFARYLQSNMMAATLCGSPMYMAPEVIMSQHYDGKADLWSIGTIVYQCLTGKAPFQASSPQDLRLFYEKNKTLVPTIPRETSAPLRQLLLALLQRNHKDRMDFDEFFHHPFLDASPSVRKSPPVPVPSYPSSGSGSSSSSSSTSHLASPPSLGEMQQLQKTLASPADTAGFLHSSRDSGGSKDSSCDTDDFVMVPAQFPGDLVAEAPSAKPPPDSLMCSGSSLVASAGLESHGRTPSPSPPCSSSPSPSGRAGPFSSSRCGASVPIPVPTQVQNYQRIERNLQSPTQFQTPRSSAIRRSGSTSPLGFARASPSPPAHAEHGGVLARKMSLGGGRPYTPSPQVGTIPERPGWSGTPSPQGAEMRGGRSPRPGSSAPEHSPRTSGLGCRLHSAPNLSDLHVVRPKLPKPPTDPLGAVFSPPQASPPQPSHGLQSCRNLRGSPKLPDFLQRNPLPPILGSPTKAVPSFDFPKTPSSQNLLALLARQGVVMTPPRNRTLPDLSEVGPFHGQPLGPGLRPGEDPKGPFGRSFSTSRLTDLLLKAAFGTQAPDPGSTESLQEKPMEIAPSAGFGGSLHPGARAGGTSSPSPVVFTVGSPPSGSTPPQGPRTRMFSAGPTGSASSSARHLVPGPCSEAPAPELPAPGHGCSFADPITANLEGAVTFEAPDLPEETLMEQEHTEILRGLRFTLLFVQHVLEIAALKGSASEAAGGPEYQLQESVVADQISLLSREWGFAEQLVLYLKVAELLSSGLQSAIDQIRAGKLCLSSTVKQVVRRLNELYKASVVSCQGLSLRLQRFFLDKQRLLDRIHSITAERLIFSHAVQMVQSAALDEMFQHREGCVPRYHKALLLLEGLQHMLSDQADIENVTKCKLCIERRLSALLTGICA
Description: ADP Glo Kinase Activity Assay. Here is the method:
as §1, with “3:” for “4:”, “uL” for “μL”, “uM).” for “μM).”, “MBP” for “peptide”, “uL)” for “μL)”, “wells.” for “wells. Inhibitor IC50 was calculated by plotting the change in luminescence after 30 minutes (response) versus inhibitor concentration (in log molar) then applying the four-parameter variable slope curve fit (GraphPad Prism).”
As to `COCCS(=O)(=O)c1csc(-c2nc(Nc3cc4c(cc3C3CC3)CNCC4)ncc2C(F)(F)F)c1` [US20250144094, Example 65], the pIC50 is over 8.00. Still for that read-out and setting: under `CN1Cc2ccc(Nc3ncc(C(F)(F)F)c(-c4cc(S(C)(=O)=O)cs4)n3)cc2C1` [US20250144094, Example 81] stands over 8.00; under `CN1CCc2cc(Nc3ncc(C(F)(F)F)c(-c4cc(S(C)(=O)=O)cs4)n3)ccc2C1` [US20250144094, Example 106], over 8.00; under `CN1CCN(c2ccc(Nc3ncc(C(F)(F)F)c(-c4cc(S(C)(=O)=O)cs4)n3)c(Cl)c2)CC1` [US20250144094, Example 112], over 8.00. Compound `CS(=O)(=O)c1csc(-c2nc(Nc3cn(C4CNC4)nc3C3CC3)ncc2C(F)(F)F)c1` [US20250144094, Example 130] had a pIC50 of over 8.00.

Take `O=C1NCCS(=O)(=O)c2cc(-c3nc(Nc4cc5c(cc4F)CNCC5)ncc3C(F)(F)F)sc21` [US20250144094, Example 134]: the pIC50 is over 8.00.
